Reference: patent US12435044B2, “Pyridazinone herbicides and pyridazinone intermediates used to prepare a herbicide” (FMC Corporation, priority 2018, dated 2025)

Experiments:
Format in all cases: in vivo
[1] = tested on: winter barley (HORVW; Hordeum vulgare, cv. Boone); experiment: Test M postemergence, mixtures of Cpd. No. 20 with isoxadifen-ethyl, cloquintocet-mexyl or Mefenpyr-diethyl; conditions: approx. 14 d
Source text: (§1) This test evaluated the effect of mixtures of Cpd. No. 20 with isoxadifen-ethyl, or cloquintocet-mexyl, or Mefenpyr-diethyl on several plant species. Seeds of plant species selected from corn (ZEAMD; Zea mays, cv. ‘Pioneer 1184’), soybean (GLXMA; Glycine max, cv. Pioneer 35T58), winter wheat (TRZAW; Triticum aetivum, cv. Arezzo), winter barley (HORVW; Hordeum vulgare, cv. Boone), rice (ORYSS; Oryza sativa, cv. M202), and giant foxtail (SETFA; Setaria faberi) were planted in pots containing Redi-Earth® planting medium (Scotts Company, 14111 Scottslawn Road, Marysville, Ohio 43041) comprising spaghnum peat moss, vermiculite, wetting agent and starter nutrients and treated postemergence using test chemicals formulated in a non-phytotoxic solvent mixture which included a surfactant. Plants ranged in height from 7 to 10 cm and were in the one- to two-leaf stage for the postemergence treatment. Treated plants and untreated controls were maintained in a greenhouse for approximately 14 d, after which time all treated plants were compared to untreated controls and visually evaluated for injury. Plant response ratings, summarized in Tables M1 to M3, are based on a 0 to 100 scale where 0 is no effect and 100 is complete control. A dash (-) response means no test result. Test results are presented as a mean of 3 reps.

[2] = tested on: rice (ORYSS; Oryza sativa, cv. M202); experiment: as above; conditions: approx. 14 d
Source text: as §1

[3] = tested on: corn (ZEAMD; Zea mays, cv. ‘Pioneer 1184’); experiment: as above; conditions: approx. 14 d
Source text: as §1

[4] = tested on: winter wheat (TRZAW; Triticum aetivum, cv. Arezzo); experiment: as above; conditions: approx. 14 d
Source text: as §1

[5] = tested on: giant foxtail (SETFA; Setaria faberi); experiment: as above; conditions: approx. 14 d
Source text: as §1

[6] = tested on: soybean (GLXMA; Glycine max, cv. Pioneer 35T58); experiment: as above; conditions: approx. 14 d
Source text: as §1

[7] = tested on: poinsettia, wild (Euphorbia heterophylla); experiment: Test E pre-/postemergence greenhouse test
Summary of the method: (§2)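 Test chemicals in a surfactant-containing solvent mixture were applied preemergence to seeded silt loam and postemergence to 1- to 4-leaf seedlings. Plants stayed in the greenhouse 14 to 21 d, then were scored visually from 0 (no effect) to 100 (complete control).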

[8] = tested on: crabgrass, Brazil (Digitaria horizontalis); experiment: Test E pre-/postemergence greenhouse test
Summary of the method: as §2

[9] = tested on: ryegrass, Italian (Lolium multiflorum); experiment: Test E pre-/postemergence greenhouse test
Summary of the method: as §2

[10] = tested on: sandbur (southern sandbur, Cenchrus echinatus); experiment: Test E pre-/postemergence greenhouse test
Summary of the method: as §2

[11] = tested on: nutsedge, yellow (Cyperus esculentus); experiment: Test E pre-/postemergence greenhouse test; conditions: Preemergence
Summary of the method: as §2

[12] = Cpd. No. 20 alone 125 g a.i./ha
[13] = Cpd. No. 20 alone 250 g a.i./ha
[14] = Cpd. No. 20 alone 375 g a.i./ha

## Cc1ccc2ccc(C)c(-c3c(O)c(Cl)nn(C)c3=O)c2c1 [Cpd. No. 20, 6-chloro-4-(2,7-dimethyl-1-naphthalenyl)-5-hydroxy-2-methyl-3(2H)-pyridazinone]
[1]; Cpd. No. 20 alone 62 g a.i./ha
  Plant response rating (0 to 100 scale) HORVW: 0
[1]; [12]
  Plant response rating (0 to 100 scale) HORVW: 10
[1]; [13]
  Plant response rating (0 to 100 scale) HORVW: 15
[1]; [14]
  Plant response rating (0 to 100 scale) HORVW: 20
[2]; Cpd. No. 20 alone 62 g a.i./ha
  Plant response rating (0 to 100 scale) ORYSS: 20
[2]; [12]
  Plant response rating (0 to 100 scale) ORYSS: 35
[2]; [13]
  Plant response rating (0 to 100 scale) ORYSS: 40
[2]; [14]
  Plant response rating (0 to 100 scale) ORYSS: 40
[3]; Cpd. No. 20 alone 62 g a.i./ha
  Plant response rating (0 to 100 scale) ZEAMD: 0
[3]; [12]
  Plant response rating (0 to 100 scale) ZEAMD: 17
[3]; [13]
  Plant response rating (0 to 100 scale) ZEAMD: 28
[3]; [14]
  Plant response rating (0 to 100 scale) ZEAMD: 33
[4]; Cpd. No. 20 alone 62 g a.i./ha
  Plant response rating (0 to 100 scale) TRZAW: 0
[4]; [12]
  Plant response rating (0 to 100 scale) TRZAW: 8
[4]; [13]
  Plant response rating (0 to 100 scale) TRZAW: 22
[4]; [14]
  Plant response rating (0 to 100 scale) TRZAW: 35
[5]; Cpd. No. 20 alone 62 g a.i./ha
  Plant response rating (0 to 100 scale) SETFA: 96
[5]; [12]
  Plant response rating (0 to 100 scale) SETFA: 99
[5]; [13]
  Plant response rating (0 to 100 scale) SETFA: 100
[5]; [14]
  Plant response rating (0 to 100 scale) SETFA: 100
[6]; Cpd. No. 20 alone 62 g a.i./ha
  Plant response rating (0 to 100 scale) GLXMA: 15
[6]; [12]
  Plant response rating (0 to 100 scale) GLXMA: 22
[6]; [13]
  Plant response rating (0 to 100 scale) GLXMA: 30
[6]; [14]
  Plant response rating (0 to 100 scale) GLXMA: 35
[7]; Postemergence, 16 g ai/ha
  Plant response rating, Poinsettia, Wild: 20
[7]; Postemergence, 31 g ai/ha
  Plant response rating, Poinsettia, Wild: 50
[7]; Postemergence, 62 g ai/ha
  Plant response rating, Poinsettia, Wild: 40
[7]; Postemergence, 125 g ai/ha
  Plant response rating, Poinsettia, Wild: 50
[7]; Preemergence, 16 g ai/ha
  Plant response rating, Poinsettia, Wild: 0
[7]; Preemergence, 31 g ai/ha
  Plant response rating, Poinsettia, Wild: 0
[7]; Preemergence, 62 g ai/ha
  Plant response rating, Poinsettia, Wild: 0
[7]; Preemergence, 125 g ai/ha
  Plant response rating, Poinsettia, Wild: 0
[8]; Postemergence, 16 g ai/ha
  Plant response rating, Crabgrass, Brazil: 20
[8]; Postemergence, 31 g ai/ha
  Plant response rating, Crabgrass, Brazil: 40
[8]; Postemergence, 62 g ai/ha
  Plant response rating, Crabgrass, Brazil: 60
[8]; Postemergence, 125 g ai/ha
  Plant response rating, Crabgrass, Brazil: 85
[8]; Preemergence, 16 g ai/ha
  Plant response rating, Crabgrass, Brazil: 75
[8]; Preemergence, 31 g ai/ha
  Plant response rating, Crabgrass, Brazil: 90
[8]; Preemergence, 62 g ai/ha
  Plant response rating, Crabgrass, Brazil: 100
[8]; Preemergence, 125 g ai/ha
  Plant response rating, Crabgrass, Brazil: 100
[9]; Postemergence, 16 g ai/ha
  Plant response rating, Ryegrass, Italian: 70
[9]; Postemergence, 31 g ai/ha
  Plant response rating, Ryegrass, Italian: 80
[9]; Postemergence, 62 g ai/ha
  Plant response rating, Ryegrass, Italian: 85
[9]; Postemergence, 125 g ai/ha
  Plant response rating, Ryegrass, Italian: 90
[9]; Preemergence, 16 g ai/ha
  Plant response rating, Ryegrass, Italian: 0
[9]; Preemergence, 31 g ai/ha
  Plant response rating, Ryegrass, Italian: 25
[9]; Preemergence, 62 g ai/ha
  Plant response rating, Ryegrass, Italian: 98
[9]; Preemergence, 125 g ai/ha
  Plant response rating, Ryegrass, Italian: 95
[10]; Postemergence, 16 g ai/ha
  Plant response rating, Sandbur: 60
[10]; Postemergence, 31 g ai/ha
  Plant response rating, Sandbur: 60
[10]; Postemergence, 62 g ai/ha
  Plant response rating, Sandbur: 70
[10]; Postemergence, 125 g ai/ha
  Plant response rating, Sandbur: 85
[10]; Preemergence, 16 g ai/ha
  Plant response rating, Sandbur: 30
[10]; Preemergence, 31 g ai/ha
  Plant response rating, Sandbur: 75
[10]; Preemergence, 62 g ai/ha
  Plant response rating, Sandbur: 85
[10]; Preemergence, 125 g ai/ha
  Plant response rating, Sandbur: 90
[11]; 16 g ai/ha
  Plant response rating, Nutsedge, Yellow: 10
[11]; 31 g ai/ha
  Plant response rating, Nutsedge, Yellow: 15
[11]; 62 g ai/ha
  Plant response rating, Nutsedge, Yellow: 75
[11]; 125 g ai/ha
  Plant response rating, Nutsedge, Yellow: 75
